Measurements reported in US10294202B2, “Pyrrolidinones as herbicides” (FMC Corporation, priority 2013, dated 2019).

Legend:
barnyardgrass [1] = test: Test A pre-/postemergence herbicide test; format: in vivo, Echinochloa crus-galli
In short: (§1)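 Visual injury ratings, 0 = no effect, 100 = complete control, taken ~10 days after treatment against untreated greenhouse controls. Preemergence: directed soil spray onto seeded loam/sand pots. Postemergence: spray onto plants at one- to two-leaf stage, 2–10 cm tall.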

crabgrass, large = test: Test A pre-/postemergence herbicide test; format: in vivo, Digitaria sanguinalis
In short: as §1

giant foxtail = test: Test A pre-/postemergence herbicide test; format: in vivo, Setaria faberii
In short: as §1

morningglory = test: Test A pre-/postemergence herbicide test; format: in vivo, Ipomoea spp.
In short: as §1

pigweed = test: Test A pre-/postemergence herbicide test; format: in vivo, Amaranthus retroflexus
In short: as §1

velvetleaf = test: Test A pre-/postemergence herbicide test; format: in vivo, Abutilon theophrasti
In short: as §1

wheat = test: Test A pre-/postemergence herbicide test; format: in vivo, Triticum aestivum
In short: as §1

corn = test: Test A pre-/postemergence herbicide test; format: in vivo, Zea mays
In short: as §1

rice = test: Test B flooded paddy test; format: in vivo, Oryza sativa; settings: Flood, scale of 0 to 100 where 0 is no effect and 100 is complete control
Procedure: (§2) Plant species in the flooded paddy test selected from rice (Oryza sativa), sedge, umbrella (small-flower umbrella sedge, Cyperus difformis), ducksalad (Heteranthera limosa), and barnyardgrass (Echinochloa crus-galli) were grown to the 2-leaf stage for testing. At time of treatment, test pots were flooded to 3 cm above the soil surface, treated by application of test compounds directly to the paddy water, and then maintained at that water depth for the duration of the test. Treated plants and controls were maintained in a greenhouse for 13 to 15 days, after which time all species were compared to controls and visually evaluated. Plant response ratings, summarized in Table B, are based on a scale of 0 to 100 where 0 is no effect and 100 is complete control. A dash (-) response means no test result.

sedge, umbrella = test: Test B flooded paddy test; format: in vivo, Cyperus difformis; settings: Flood, scale of 0 to 100 where 0 is no effect and 100 is complete control
Procedure: as §2

ducksalad = test: Test B flooded paddy test; format: in vivo, Heteranthera limosa; settings: Flood, scale of 0 to 100 where 0 is no effect and 100 is complete control
In short: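 Paddy-water application at a 3 cm flood, young plants having two leaves. Water level maintained; greenhouse, 13–15 days; visual 0–100 control rating.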

barnyardgrass [2] = test: Test B flooded paddy test; format: in vivo, Echinochloa crus-galli; settings: Flood, scale of 0 to 100 where 0 is no effect and 100 is complete control
Procedure: as §2

[3] = Postemergence, 125 g ai/ha, 0 to 100 scale, 0 is no effect, 100 is complete control
[4] = Postemergence, 500 g ai/ha, 0 to 100 scale (0 no effect, 100 complete control)
[5] = Preemergence, 125 g ai/ha, 0 to 100 scale where 0 is no effect and 100 is complete control
[6] = preemergence, 500 g ai/ha, 0 to 100 scale, 0 is no effect and 100 is complete control
[7] = Postemergence, 125 g ai/ha, visual rating on 0 to 100 scale (0 no effect, 100 complete control), approx. 10 days
[8] = Postemergence, 125 g ai/ha, 0 to 100 scale, 0 no effect, 100 complete control
[9] = Preemergence, 125 g ai/ha, visual rating on 0 to 100 scale (0 no effect, 100 complete control)
[10] = preemergence, 500 g ai/ha, 0 to 100 scale

Structure (SMILES): O=C1NCC(c2ccc(C(F)(F)F)nc2)C1C(=O)Nc1ccccc1C(F)(F)F (racemic) [Compound 264]
- Plant response rating, Barnyardgrass (barnyardgrass [1]; [3]): 30
- Plant response rating, Barnyardgrass (barnyardgrass [1]; [4]): 80
- Plant response rating, Barnyardgrass (barnyardgrass [1]; [5]): 50
- Plant response rating, Barnyardgrass (barnyardgrass [1]; [6]): 90
- Plant response rating, Crabgrass, Large (crabgrass, large; [3]): 80
- Plant response rating, Crabgrass, Large (crabgrass, large; [4]): 90
- Plant response rating, Crabgrass, Large (crabgrass, large; [5]): 100
- Plant response rating, Crabgrass, Large (crabgrass, large; [6]): 100
- Plant response rating, Foxtail, Giant (giant foxtail; [3]): 60
- Plant response rating, Foxtail, Giant (giant foxtail; [4]): 80
- Plant response rating, Foxtail, Giant (giant foxtail; [5]): 80
- Plant response rating, Foxtail, Giant (giant foxtail; [6]): 90
- Plant response rating, Morningglory (morningglory; [4]): 0
- Plant response rating, Morningglory (morningglory; [5]): 0
- Plant response rating, Morningglory (morningglory; [6]): 0
- Plant response rating, Pigweed (pigweed; [4]): 60
- Plant response rating, Pigweed (pigweed; [5]): 50
- Plant response rating, Pigweed (pigweed; [6]): 80
- Plant response rating, Velvetleaf (velvetleaf; [4]): 30
- Plant response rating, Velvetleaf (velvetleaf; [5]): 0
- Plant response rating, Velvetleaf (velvetleaf; [6]): 0
- Plant response rating, Wheat (wheat; [4]): 0
- Plant response rating, Wheat (wheat; [5]): 0
- Plant response rating, Wheat (wheat; [6]): 0
- Plant response rating, Corn (corn; [3]): 0
- Plant response rating, Corn (corn; [4]): 0
- Plant response rating, Corn (corn; [5]): 0
- Plant response rating, Corn (corn; [6]): 0
- Plant response rating, Rice (rice; 1000 g ai/ha): 0
- Plant response rating, Sedge, Umbrella (sedge, umbrella; 1000 g ai/ha): 0
- Plant response rating, Ducksalad (ducksalad; 1000 g ai/ha): 100
- Plant response rating, Barnyardgrass (barnyardgrass [2]; 1000 g ai/ha): 0

Structure (SMILES): O=C1NCC(c2ccc(C(F)(F)F)c(F)c2)C1C(=O)Nc1ccccc1C(F)(F)F (racemic) [Compound 248]
- Plant response rating, Barnyardgrass (barnyardgrass [1]; [3]): 20
- Plant response rating, Barnyardgrass (barnyardgrass [1]; [4]): 50
- Plant response rating, Barnyardgrass (barnyardgrass [1]; [5]): 30
- Plant response rating, Barnyardgrass (barnyardgrass [1]; [6]): 80
- Plant response rating, Crabgrass, Large (crabgrass, large; [3]): 50
- Plant response rating, Crabgrass, Large (crabgrass, large; [4]): 70
- Plant response rating, Crabgrass, Large (crabgrass, large; [5]): 90
- Plant response rating, Crabgrass, Large (crabgrass, large; [6]): 90
- Plant response rating, Foxtail, Giant (giant foxtail; [3]): 30
- Plant response rating, Foxtail, Giant (giant foxtail; [4]): 50
- Plant response rating, Foxtail, Giant (giant foxtail; [5]): 80
- Plant response rating, Foxtail, Giant (giant foxtail; [6]): 90
- Plant response rating, Morningglory (morningglory; [3]): 0
- Plant response rating, Morningglory (morningglory; [4]): 0
- Plant response rating, Morningglory (morningglory; [5]): 0
- Plant response rating, Morningglory (morningglory; [6]): 0
- Plant response rating, Pigweed (pigweed; [3]): 0
- Plant response rating, Pigweed (pigweed; [4]): 0
- Plant response rating, Pigweed (pigweed; [5]): 0
- Plant response rating, Pigweed (pigweed; [6]): 0
- Plant response rating, Velvetleaf (velvetleaf; [3]): 0
- Plant response rating, Velvetleaf (velvetleaf; [4]): 0
- Plant response rating, Velvetleaf (velvetleaf; [5]): 0
- Plant response rating, Velvetleaf (velvetleaf; [6]): 0
- Plant response rating, Wheat (wheat; [3]): 0
- Plant response rating, Wheat (wheat; [4]): 0
- Plant response rating, Wheat (wheat; [5]): 0
- Plant response rating, Wheat (wheat; [6]): 0
- Plant response rating, Corn (corn; [3]): 0
- Plant response rating, Corn (corn; [4]): 20
- Plant response rating, Corn (corn; [5]): 0
- Plant response rating, Corn (corn; [6]): 0
- Plant response rating, Rice (rice; 1000 g ai/ha): 0
- Plant response rating, Sedge, Umbrella (sedge, umbrella; 1000 g ai/ha): 0
- Plant response rating, Ducksalad (ducksalad; 1000 g ai/ha): 95
- Plant response rating, Barnyardgrass (barnyardgrass [2]; 1000 g ai/ha): 55

Structure (SMILES): O=C1NCC(c2ccc(C(F)(F)F)c(Cl)c2)C1C(=O)Nc1ccccc1F (racemic) [Compound 249]
- Plant response rating, Barnyardgrass (barnyardgrass [1]; [3]): 30
- Plant response rating, Barnyardgrass (barnyardgrass [1]; [4]): 50
- Plant response rating, Barnyardgrass (barnyardgrass [1]; [5]): 50
- Plant response rating, Barnyardgrass (barnyardgrass [1]; [6]): 80
- Plant response rating, Crabgrass, Large (crabgrass, large; [3]): 0
- Plant response rating, Crabgrass, Large (crabgrass, large; [4]): 40
- Plant response rating, Crabgrass, Large (crabgrass, large; [5]): 80
- Plant response rating, Crabgrass, Large (crabgrass, large; [6]): 90
- Plant response rating, Foxtail, Giant (giant foxtail; [3]): 20
- Plant response rating, Foxtail, Giant (giant foxtail; [4]): 40
- Plant response rating, Foxtail, Giant (giant foxtail; [5]): 50
- Plant response rating, Foxtail, Giant (giant foxtail; [6]): 90
- Plant response rating, Morningglory (morningglory; [3]): 0
- Plant response rating, Morningglory (morningglory; [4]): 0
- Plant response rating, Morningglory (morningglory; [5]): 0
- Plant response rating, Morningglory (morningglory; [6]): 0
- Plant response rating, Pigweed (pigweed; [3]): 0
- Plant response rating, Pigweed (pigweed; [4]): 0
- Plant response rating, Pigweed (pigweed; [5]): 0
- Plant response rating, Pigweed (pigweed; [6]): 0
- Plant response rating, Velvetleaf (velvetleaf; [3]): 0
- Plant response rating, Velvetleaf (velvetleaf; [4]): 0
- Plant response rating, Velvetleaf (velvetleaf; [5]): 0
- Plant response rating, Velvetleaf (velvetleaf; [6]): 0
- Plant response rating, Wheat (wheat; [3]): 0
- Plant response rating, Wheat (wheat; [4]): 0
- Plant response rating, Wheat (wheat; [5]): 0
- Plant response rating, Wheat (wheat; [6]): 0
- Plant response rating, Corn (corn; [3]): 0
- Plant response rating, Corn (corn; [4]): 0
- Plant response rating, Corn (corn; [5]): 0
- Plant response rating, Corn (corn; [6]): 0
- Plant response rating, Rice (rice; 1000 g ai/ha): 15
- Plant response rating, Sedge, Umbrella (sedge, umbrella; 1000 g ai/ha): 40
- Plant response rating, Ducksalad (ducksalad; 1000 g ai/ha): 85
- Plant response rating, Barnyardgrass (barnyardgrass [2]; 1000 g ai/ha): 55

Structure (SMILES): O=C1NCC(c2ccc(Cl)c(C(F)(F)F)c2)C1C(=O)Nc1cccc(F)c1F (racemic) [Compound 268]
- Plant response rating, Barnyardgrass (barnyardgrass [1]; [3]): 50
- Plant response rating, Barnyardgrass (barnyardgrass [1]; [4]): 70
- Plant response rating, Barnyardgrass (barnyardgrass [1]; [5]): 70
- Plant response rating, Barnyardgrass (barnyardgrass [1]; [6]): 80
- Plant response rating, Crabgrass, Large (crabgrass, large; [3]): 70
- Plant response rating, Crabgrass, Large (crabgrass, large; [4]): 80
- Plant response rating, Crabgrass, Large (crabgrass, large; [5]): 80
- Plant response rating, Crabgrass, Large (crabgrass, large; [6]): 90
- Plant response rating, Foxtail, Giant (giant foxtail; [3]): 80
- Plant response rating, Foxtail, Giant (giant foxtail; [4]): 90
- Plant response rating, Foxtail, Giant (giant foxtail; [5]): 70
- Plant response rating, Foxtail, Giant (giant foxtail; [6]): 80
- Plant response rating, Morningglory (morningglory; [7]): 20
- Plant response rating, Morningglory (morningglory; [4]): 0
- Plant response rating, Morningglory (morningglory; [5]): 0
- Plant response rating, Morningglory (morningglory; [6]): 60
- Plant response rating, Pigweed (pigweed; [7]): 50
- Plant response rating, Pigweed (pigweed; [4]): 80
- Plant response rating, Pigweed (pigweed; [5]): 30
- Plant response rating, Pigweed (pigweed; [6]): 60
- Plant response rating, Velvetleaf (velvetleaf; [5]): 0
- Plant response rating, Velvetleaf (velvetleaf; [6]): 0
- Plant response rating, Wheat (wheat; [7]): 0
- Plant response rating, Wheat (wheat; [4]): 0
- Plant response rating, Wheat (wheat; [5]): 0
- Plant response rating, Wheat (wheat; [6]): 0
- Plant response rating, Corn (corn; [3]): 0
- Plant response rating, Corn (corn; [4]): 40
- Plant response rating, Corn (corn; [5]): 0
- Plant response rating, Corn (corn; [6]): 80
- Plant response rating, Rice (rice; 1000 g ai/ha): 20
- Plant response rating, Sedge, Umbrella (sedge, umbrella; 1000 g ai/ha): 0
- Plant response rating, Ducksalad (ducksalad; 1000 g ai/ha): 100
- Plant response rating, Barnyardgrass (barnyardgrass [2]; 1000 g ai/ha): 0

Structure (SMILES): O=C1NCC(c2ccc(F)c(F)c2)C1C(=O)Nc1cccc2c1OC(F)(F)O2 (stereo not drawn) [Compound 57]
- Plant response rating, Barnyardgrass (barnyardgrass [1]; [8]): 70
- Plant response rating, Barnyardgrass (barnyardgrass [1]; [4]): 80
- Barnyardgrass plant response rating (barnyardgrass [1]; [9]): 40
- Plant response rating, Barnyardgrass (barnyardgrass [1]; preemergence, 500 g ai/ha, 0 to 100 scale (0 no effect, 100 complete control)): 80
- Plant response rating, Crabgrass, Large (crabgrass, large; [8]): 50
- Plant response rating, Crabgrass, Large (crabgrass, large; [4]): 70
- Crabgrass, Large plant response rating (crabgrass, large; [9]): 80
- Plant response rating, Crabgrass, Large (crabgrass, large; [10]): 90
- Plant response rating, Foxtail, Giant (giant foxtail; [8]): 50
- Plant response rating, Foxtail, Giant (giant foxtail; [4]): 60
- Foxtail, Giant plant response rating (giant foxtail; [9]): 60
- Plant response rating, Foxtail, Giant (giant foxtail; [10]): 80
- Plant response rating, Morningglory (morningglory; [8]): 0
- Plant response rating, Morningglory (morningglory; [4]): 0
- Morningglory plant response rating (morningglory; [9]): 0
- Plant response rating, Morningglory (morningglory; [10]): 0
- Plant response rating, Pigweed (pigweed; [8]): 0
- Plant response rating, Pigweed (pigweed; [4]): 0
- Pigweed plant response rating (pigweed; [9]): 0
- Plant response rating, Pigweed (pigweed; [10]): 0
- Plant response rating, Velvetleaf (velvetleaf; [8]): 0
- Plant response rating, Velvetleaf (velvetleaf; [4]): 0
- Velvetleaf plant response rating (velvetleaf; [9]): 0
- Plant response rating, Velvetleaf (velvetleaf; [10]): 0
- Plant response rating, Wheat (wheat; [8]): 0
- Plant response rating, Wheat (wheat; [4]): 0
- Wheat plant response rating (wheat; [9]): 0
- Plant response rating, Wheat (wheat; [10]): 0
- Plant response rating, Corn (corn; [8]): 0
- Plant response rating, Corn (corn; [4]): 0
- Corn plant response rating (corn; [9]): 0
- Plant response rating, Corn (corn; [10]): 0
- Plant response rating, Rice (rice; 250 g ai/ha): 0
- Plant response rating, Sedge, Umbrella (sedge, umbrella; 250 g ai/ha): 0
- Plant response rating, Ducksalad (ducksalad; 250 g ai/ha): 0
- Plant response rating, Barnyardgrass (barnyardgrass [2]; 250 g ai/ha): 0
